Measurements taken from US20060264447A1, “Fungicidal mixtures for controlling rice pathogens” (priority 2003, published 2006).

Tested on: Cochliobolus miyabeanus
Assay: Activity against brown spot of rice caused by Cochliobolus miyabeanus, protective application
Assay type: in vivo
Conditions: individual active compound, rice seedlings Tai-Nong 67, protective spray, rated after six days
Procedure: The active compounds, separately or jointly, were prepared as a stock solution with 0.25% by weight of active compound in acetone or DMSO. 1% by weight of the emulsifier Uniperol® EL (wetting agent having emulsifying and dispersing action based on ethoxylated alkylphenols) was added to this solution, and the solution was diluted with water to the desired concentration.
Leaves of potted rice seedlings of the cultivar “Tai-Nong 67” were sprayed to runoff point with an aqueous suspension of the concentration of active compound stated below. The next day, the plants were inoculated with an aqueous spore suspension of Cochliobolus miyabeanus. The test plants were then placed in climatized chambers at 22-24° C. and 95-99% relative atmospheric humidity for six days. The extent of the development of the infection on the leaves was then determined visually.
Evaluation is carried out by determining the percentage of infected plants. These percentages were converted into efficacies.
The efficacy (E) is calculated as follows using Abbot's formula: E=(1−α/β)·100 α corresponds to the fungicidal infection of the treated plants in % and β corresponds to the fungicidal infection of the untreated (control) plants in %
An efficacy of 0 means that the infection level of the treated plants corresponds to that of the untreated control plants; an efficacy of 100 means that the treated plants are not infected.
The expected efficacies of mixtures of active compounds are determined using Colby's formula (Colby, R. S. Weeds, 15, 20-22, 1967) and compared with the observed efficacies.
Colby's formula: E=x+y−x·y/100 • E expected efficacy, expressed in % of the untreated control, when using the mixture of the active compounds A and B at the concentrations a and b • x efficacy, expressed in % of the untreated control, when using the active compound A at the concentration a • y efficacy, expressed in % of the untreated control, when using the active compound B at the concentration b

SMILES | Efficacy in % of the untreated control (4 ppm in the spray liquor) [%] | Efficacy in % of the untreated control (16 ppm in the spray liquor) [%]
CC1CCN(c2c(-c3c(F)cccc3Cl)c(Cl)nc3ncnn23)CC1 [A] | 29 | 53
C[C@H](Nc1c(-c2c(F)cc(F)cc2F)c(Cl)nc2ncnn12)C(F)(F)F [B] | 5 | 41
CC1CCN(c2c(-c3c(F)cc(F)cc3F)c(Cl)nc3ncnn23)CC1 [compound I, 5-chloro-7-(4-methylpiperidin-1-yl)-6-(2,4,6-trifluorophenyl)-[1,2,4]triazolo[1,5-a]pyrimidine] | 5 | 17
O=[N+]([O-])c1cc(C(F)(F)F)c(Cl)c([N+](=O)[O-])c1Nc1ncc(C(F)(F)F)cc1Cl [compound II, 3-chloro-N-[3-chloro-2,6-dinitro-4-(trifluoromethyl)phenyl]-5-(trifluoromethyl)-2-pyridinamine] | 5 | 17
